In patent publication US10765114B2, “4-amino-6-(pyridyl and 2-substitutedphenyl)-picolinates and 6-amino-2-(pyridyl and 2-substitutedphenyl)-pyrimidine-4-carboxylates and their use as herbicides” (Dow AgroSciences LLC, priority 2013, dated 2020):

Legend:
Assay in all cases: Post-Emergent Test I
Assay type in all cases: in vivo
Conditions in all cases: postemergence
[1] = system: AMARE: redroot pigwseed (Amaranthus retroflexus)
Protocol: (§1) Post-Emergent Test I Seeds test species were obtained from commercial suppliers and planted into a 13 centimeter (cm) diameter-round pot containing soil-less media mix (Metro-Mix 360®, Sun Gro Horticulture). Postemergence treatments were planted 8-12 days prior to application and cultured in a greenhouse equipped with supplemental light sources to provide a 16 hour (h) photoperiod at 24-29° C. All pots were surface irrigated.
(§2) A weighted amount, determined by the highest rate to be tested, of each compound was dissolved in 1.3 mL acetone-dimethyl sulfoxide (DMSO; 97:3, volume per volume (v/v)) and diluted with 4.1 mL water-isopropanol-crop oil concentrate (78:20:2, v/v/v) containing 0.02% Triton X-155 to obtain concentrated stock solutions. Additional application rates were obtained by serial dilution of the high rate solution into a solution containing appropriate volume of 97:3 v/v mixture of acetone and DMSO and appropriate volume of an aqueous mixture of water, isopropyl alcohol, crop oil concentrate (78:20:2, v/v/v) containing 0.02% Triton X-155.
(§3) Formulated compounds were applied using a DeVilbiss® compressed air sprayer at 2-4 pounds per square inch (psi). Following treatment, pots were returned to the greenhouse for the duration of the experiment. All pots were sub-irrigated as need to provide optimum growing conditions. All pots were fertilized one time per week by subirrigating with Peters Peat-Lite Special® fertilizer (20-10-20).
(§4) All evaluations were made visually on a scale of 0 to 100 where 0 represents no activity and 100 represents complete plant death and presented as indicated in Table A. Visual assessments of plant injury were made based on growth reduction, discoloration, leaf deformity and necrosis

[2] = system: AVEFA: wild oats (Avena fatua)
Protocol: as §1, §2, §3, §4

[3] = system: ECHSS (ECHCG: barnyardgrass (Echinochloa crus-galli))
Protocol: as §1, §2, §3, §4

[4] = system: HELAN: sunflower (Helianthus annuus)
Protocol: as §1, §2, §3, §4

[5] = system: IPOSS (IPOHE: ivyleaf morningglory (Ipomoea hederecea))
Protocol: as §1, §2, §3, §4

[6] = system: SETFA: giant foxtail (Setaria faberi)
Protocol: as §1, §2, §3, §4

SMILES | Visual Growth Reduction (%) 14 Days After Application, AMARE ([1]; 4 kg ai/ha) | Visual Growth Reduction (%) 14 Days After Application, AVEFA ([2]; 4 kg ai/ha) | Visual Growth Reduction (%) 14 Days After Application, ECHSS ([3]; 4 kg ai/ha) | Visual Growth Reduction (%) 14 Days After Application, HELAN ([4]; 4 kg ai/ha) | Visual Growth Reduction (%) 14 Days After Application, IPOSS ([5]; 4 kg ai/ha) | Visual Growth Reduction (%) After Application, SETFA ([6]; 4 kg ai/ha) | Visual Growth Reduction (%) 14 Days After Application, AMARE ([1]; 3.8 kg ai/ha) | Visual Growth Reduction (%) 14 Days After Application, AVEFA ([2]; 3.8 kg ai/ha) | Visual Growth Reduction (%) 14 Days After Application, ECHSS ([3]; 3.8 kg ai/ha) | Visual Growth Reduction (%) 14 Days After Application, HELAN ([4]; 3.8 kg ai/ha) | Visual Growth Reduction (%) 14 Days After Application, IPOSS ([5]; 3.8 kg ai/ha) | Visual Growth Reduction (%) After Application, SETFA ([6]; 3.8 kg ai/ha)
COC(=O)c1nc(-c2ccc(C(F)(F)F)nc2)cc(N)c1Cl [Compound 4] | A (95-100) | B (85-94) | C (75-84) | A (95-100) | A (95-100) | A (95-100) | – | – | – | – | – | –
COC(=O)c1nc(-c2ccc(Cl)nc2F)cc(N)c1Cl [Compound 17, methyl 4-amino-5,6′-dichloro-2′-fluoro-[2,3′-bipyridine]-6-carboxylate] | – | – | – | – | – | – | C (75-84) | F (30-44) | F (30-44) | A (95-100) | A (95-100) | B (85-94)
